# In patent publication US20240228493A1, “LRRK2 INHIBITORS AND USES THEREOF” (NEURON23, ICN., priority 2022, published 2024):
# Assays:
# [1] = biological target: T1, wt human LRRK2, catalytic site (Homo sapiens, UniProt Q5S007); experiment: TR-FRET LanthaScreen Tb Kinase Activity Assay, LRRK2 inhibition; assay type: biochemical; settings: 2 nM wt human LRRK2, 400 nM peptide, 38 μM ATP
# T1 construct: wt human LRRK2, catalytic site, catalytic site (ThermoFisher/USA); purchased ThermoFisher
# Procedure: The compounds disclosed herein were tested for their inhibitory effect on LRRK2 kinase according to the following procedures.
# The protocol for basic TR-FRET LanthaScreen Tb Kinase Activity Assay inhibitor studies were as follows. LanthaScreen Kinase Activity Assays (ThermoFisher/USA) to evaluate inhibitors were performed by addition of 100 nL of test compound in corresponding DMSO dilutions/5 μL of kinase/fluorescein-ERM (LRRKtide) peptide mixture, Compound & kinase were pre-incubated for 15 minutes, then 5 μl of ATP into 384 well small volume plates. After incubation for 120 minutes at room temperature, the detection reagents containing Tb-anti-pLRRKtide antibody were added to monitor phosphorylation level of peptide. Then, after 60 min minutes incubation at room temperature plates were read in Envision. Data analysis of emission ratios was according to LanthaScreen Tb Kinase Activity Assay protocol.
# Kinase and assay components were adjusted to final concentrations according to the kit protocol. For LRRK2: 2 nM wt human LRRK2, catalytic site, catalytic site (ThermoFisher/USA), 400 nM peptide, 38 μM ATP in 1× Kinase Buffer A. […]
# Kinase and assay components were adjusted to final concentrations according to the kit protocol.
# Caco-2 cells = experiment: Caco-2 bidirectional permeability; assay type: in vitro ADME; settings: for Caco-2 ER: Efflux Ratio=Papp(BA)/Papp(AB); for Caco-2 A2B (10^−6 cm/s): apical to basolateral; for Caco-2 A2B (10^−6 cm/s) / Caco-2 B2A (10^−6 cm/s): 2 hours, pH 7.4; for Caco-2 B2A (10^−6 cm/s): basolateral to apical
# Procedure: The compounds disclosed herein were tested in vitro on CaCo2 cell penetration according to the following procedures.
# Caco-2 cells purchased from ATCC were seeded onto […] (PET) in 96-well Corning Insert plates at 1×10^5 cells/cm^2. The media were refreshed every 4 to 5 days until the 21st to 28th day for confluent cell monolayer formation.
# Experiments were run in duplicate using a HBSS transport buffer containing 10 mM HEPES at pH 7.4. The test article TEST COMPOUND was tested bi-directionally at […] concentrations, the control compound digoxin was tested bi-directionally at 10 μM, and nadolol and metoprolol were tested at 2.0 μM in the A to B direction. Final DMSO concentrations were adjusted to less than 1%. The plates were incubated for 2 hours in a CO2 incubator at 37±1° C. with 5% CO2 at saturated humidity without shaking. Following incubation, samples were mixed with acetonitrile containing internal standard and centrifuged at 3200×g for 10 minutes. Then 200 μL of supernatant was taken from all samples. For TEST COMPOUND and digoxin, the supernatant was diluted with 200 μL of ultra-pure water and for nadolol and metoprolol, the supernatant was diluted with 600 μL of ultra-pure water. All samples were analyzed by LC-MS/MS. Concentrations of TEST COMPOUND and control compounds were determined in starting solutions, donor well solutions, and receiver well solutions using peak area ratios (PAR) of analyte to internal standard. After the transport assay, a lucifer yellow rejection assay was run to determine the Caco-2 cell monolayer integrity.
# The apparent permeability (Papp), the % recovery and the efflux ratio were calculated as follows:
# Papp=(dCr/dt)×Vr/(A×C0) 1.
# Efflux Ratio=Papp(BA)/Papp(AB) 3. • Where: • dCr/dt is the slope of the cumulative concentration in the receiver compartment versus time (mM/s). • Vr and Vd is the volume in the receiver and donor compartments (0.075 mL on the apical side, 0.25 mL on the basolateral side), respectively. • A is the surface area of the cell monolayer (0.0804 cm^2). • C0 is the measured donor concentrations (μM) at the beginning of the experiment. • Cd and Cr are the final measured concentrations in the donor and receiver compartments, respectively.
# human hepatocyte = experiment: Human hepatocyte stability, predicted hepatic clearance (h-Hept CL predict); assay type: in vitro ADME; settings: human hepatocytes, 0.5×10^6 cells/mL, 1 μM, values without asterisk
# Procedure: The compounds disclosed herein were tested in vitro on human hepatocyte for in vitro h-Hept CL predict according to the following procedures. • 1. Compound sock solutions were prepared by dissolving test compound and positive control in dimethyl sulfoxide (DMSO) at a concentration of 10 mM. Stock solutions were then diluted to 100 μM solutions by combining 198 μL of 50% acetonitrile/50% water with 2 μL of the 10 mM stock in separate conical tubes. • 2. Cryopreserved hepatocytes were prepared as follows: Incubation medium (William's E Medium supplemented with GlutaMAX) and hepatocyte thawing medium were placed in a 37° C. water bath and allowed to warm for at least 15 minutes prior to use. Cryopreserved hepatocytes were removed from storage, ensuring that vials remained at cryogenic temperatures until thawed. Cells were thawed by placing the vials in a 37° C. water bath and gently shaking the vials for 2 minutes. After thawing was completed, vials were sprayed with 70% ethanol and transferred to a biosafety cabinet. Hepatocytes were transferred into 50 mL conical tube containing thawing medium using wide-bore pipette tips. Tubes were placed into a centrifuge and spun at 100 g for 10 minutes. Then thawing medium was aspirated and hepatocytes were resuspended in enough incubation medium to yield ˜1.5×10^6 cells/mL. Cells were counted using acridine orange and propidium iodide (AO/PI) staining, and the viable cell density was determined. Cells were diluted with incubation medium to a working cell density of 0.5×10^6 viable cells/mL. • 3. To determine hepatocyte stability, 198 μL of hepatocytes were transferred into each well of a 96-well non-coated plate. Plates were placed in an incubator to allow the hepatocytes to warm for 10 minutes. • 4. The reaction was started by transferring 2 μL of the 100 μM test compound or positive control solution into respective wells of the 96-well non-coated plates. Plates were returned to the incubator until 25 μL aliquots of well contents were sampled at time points of 0, 15, 30, 60, 90 and 120 minutes. The aliquots were then mixed with 6 volumes (150 μL) of acetonitrile containing internal standard, IS (100 nM alprazolam, 200 nM caffeine and 100 nM tolbutamide) to terminate the reaction and vortexed for 5 minutes. After centrifuging the samples for 45 minutes at 3,220 g, aliquots of 100 μL of the supernatant were taken and diluted with 100 μL of ultra-pure water. The mixture was used for LC/MS/MS analysis. All incubations were performed in duplicate.
# All calculations were carried out using Microsoft Excel. Peak area ratios (PAR) were determined from extracted ion chromatograms. The in vitro half-life (t1/2) of parent compound was determined by regression analysis of the percent parent disappearance vs. time curve as follows:
# Conversion of the in vitro t1/2 (in minutes) into the in vitro intrinsic clearance (in vitro CLint, in μL/min/1×10^6 cells) was done using the following equation (mean of duplicate determinations): […]
# The scaled-up intrinsic clearance (CLint, mL/min/kg), predicted hepatic clearance (CLH, mL/min/kg) and hepatic extraction ratio (ER) were calculated using the following equations:
# CLint=(0.693/t1/2)*(1/(hepatocyte concentration (0.5*10^6 cells/mL)))*scaling factors (Table (A) Appendix Table 1)
# CLHept-predict=(QH*Scaled-up CLint*fub)/(QH+Scaled-up CLint*fub)
# ER=CLH/QH • Where: • V=incubation volume (0.2 mL) • N=number of hepatocytes per well (0.1*10^6 cells) • QH=hepatic blood flow (mL/min/kg) (Table (A) Appendix Table 1) • fub=fraction of unbound drug in plasma, assumed to be 1
# T1 sequence (Q5S007 1879-2138 limits assumed): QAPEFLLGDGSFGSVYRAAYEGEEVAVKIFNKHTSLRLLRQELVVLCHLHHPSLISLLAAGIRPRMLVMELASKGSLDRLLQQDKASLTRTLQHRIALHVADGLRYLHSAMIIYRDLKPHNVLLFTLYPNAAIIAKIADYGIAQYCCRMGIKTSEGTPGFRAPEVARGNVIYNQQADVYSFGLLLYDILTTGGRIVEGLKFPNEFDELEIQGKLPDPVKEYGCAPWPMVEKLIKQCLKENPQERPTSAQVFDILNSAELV
compound,measurement,setting,value
"COC[C@@H]1CN(c2cc3c(cn2)NC(c2c(F)cccc2F)=Nc2c(C)n[nH]c2-3)CCO1 [Example 16, (2S)-4-[8-(2,6-difluorophenyl)-5-methyl-3,4,7,9,12-pentazatricyclo[8.4.0.02,6]tetradeca-1(10),2(6),4,7,11,13-hexaen-13-y1]-2-(methoxymethyl)morpholine]",IC50,[1],1 to 100 nM
same,Caco-2 ER,Caco-2 cells,L (L (Likely)”: ER≥2.5)
same,Caco-2 A2B (10^−6 cm/s),Caco-2 cells,M (M (Moderate permeability)”: 1≤A2B (B2A)≤5)
same,Caco-2 B2A (10^−6 cm/s),Caco-2 cells,H (H (High permeability)”: A2B (B2A)>5)
same,hHep Cl (mL/min/kg),human hepatocyte,L (L (Low Cl)”: Hep Cl (mL/min/kg)<6.3)
"Cc1n[nH]c2c1N=C(c1c(F)cccc1F)Nc1cnc(N3CCN(CCF)CC3)cc1-2 [Example 1, 8-(2,6-difluorophenyl)-13-[4-(2-fluoroethyl)piperazin-1-y1]-5-methyl-3,4,7,9,12-pentazatricyclo[8.4.0.02,6]tetradeca-1(10),2(6),4,7,11,13-hexaene]",IC50,[1],< 1 nM
same,Caco-2 ER,Caco-2 cells,L (L (Likely)”: ER≥2.5)
same,Caco-2 A2B (10^−6 cm/s),Caco-2 cells,M (M (Moderate permeability)”: 1≤A2B (B2A)≤5)
same,Caco-2 B2A (10^−6 cm/s),Caco-2 cells,H (H (High permeability)”: A2B (B2A)>5)
same,hHep Cl (mL/min/kg),human hepatocyte,I (I (Intermediate Cl)”: 6.3≤Hep Cl (mL/min/kg)≤14.7)
"N#C[C@@H]1CCCN(c2cc3c(cn2)NC(c2c(F)cccc2F)=Nc2c(Cl)n[nH]c2-3)C1 [Example 52, (R)-1-(3-chloro-5-(2,6-difluorophenyl)-1,6-dihydropyrazolo[4,3-d]pyrido[4,3-f][1,3]diazepin-9-y1)piperidine-3-carbonitrile]",IC50,[1],< 1 nM
same,Caco-2 ER,Caco-2 cells,L (L (Likely)”: ER≥2.5)
same,Caco-2 A2B (10^−6 cm/s),Caco-2 cells,M (M (Moderate permeability)”: 1≤A2B (B2A)≤5)
same,Caco-2 B2A (10^−6 cm/s),Caco-2 cells,H (H (High permeability)”: A2B (B2A)>5)
same,hHep Cl (mL/min/kg),human hepatocyte,I (I (Intermediate Cl)”: 6.3≤Hep Cl (mL/min/kg)≤14.7)
"Fc1cccc(F)c1C1=Nc2c(Cl)n[nH]c2-c2cc(-c3ccn(CC(F)F)n3)ncc2N1 [Example 30, (3-chloro-9-(1-(2,2-difluoroethyl)-1H-pyrazol-3-yl)-5-(2,6-difluorophenyl)-1,6-dihydropyrazolo[4,3-d]pyrido[4,3-f][1,3]diazepine)]",IC50,[1],< 1 nM
same,Caco-2 ER,Caco-2 cells,L (L (Likely)”: ER≥2.5)
same,Caco-2 A2B (10^−6 cm/s),Caco-2 cells,M (M (Moderate permeability)”: 1≤A2B (B2A)≤5)
same,Caco-2 B2A (10^−6 cm/s),Caco-2 cells,H (H (High permeability)”: A2B (B2A)>5)
same,hHep Cl (mL/min/kg),human hepatocyte,I (I (Intermediate Cl)”: 6.3≤Hep Cl (mL/min/kg)≤14.7)
"Cc1n[nH]c2c1N=C(c1c(F)ccc(CO)c1F)Nc1cnc(N3CCOCC3)cc1-2 [Example 50, (2,4-difluoro-3-(3-methyl-9-morpholino-1,6-dihydropyrazolo[4,3-d]pyrido[4,3-f][1,3]diazepin-5-yl)phenyl)methanol]",IC50,[1],1 to 100 nM
same,Caco-2 ER,Caco-2 cells,L (L (Likely)”: ER≥2.5)
same,Caco-2 A2B (10^−6 cm/s),Caco-2 cells,L (L (Low permeability)”: A2B (B2A)<1)
same,Caco-2 B2A (10^−6 cm/s),Caco-2 cells,H (H (High permeability)”: A2B (B2A)>5)
same,hHep Cl (mL/min/kg),human hepatocyte,L (L (Low Cl)”: Hep Cl (mL/min/kg)<6.3)
"Fc1cccc(F)c1C1=Nc2c(Cl)n[nH]c2-c2cc(N3CC4CCC(C3)O4)ncc2N1 [Example 53, 3-(3-chloro-5-(2,6-difluorophenyl)-1,6-dihydropyrazolo[4,3-d]pyrido[4,3-f][1,3]diazepin-9-yl)-8-oxa-3-azabicyclo[3.2.1]octane]",IC50,[1],< 1 nM
same,Caco-2 ER,Caco-2 cells,L (L (Likely)”: ER≥2.5)
same,Caco-2 A2B (10^−6 cm/s),Caco-2 cells,M (M (Moderate permeability)”: 1≤A2B (B2A)≤5)
same,Caco-2 B2A (10^−6 cm/s),Caco-2 cells,H (H (High permeability)”: A2B (B2A)>5)
same,hHep Cl (mL/min/kg),human hepatocyte,I (I (Intermediate Cl)”: 6.3≤Hep Cl (mL/min/kg)≤14.7)
"Cc1n[nH]c2c1N=C(c1c(F)cccc1F)Nc1cnc(N3CCC[C@](C)(C#N)C3)cc1-2 (single isomer, unassigned) [Example 13]",IC50,[1],< 1 nM
same,Caco-2 ER,Caco-2 cells,L (L (Likely)”: ER≥2.5)
same,Caco-2 A2B (10^−6 cm/s),Caco-2 cells,M (M (Moderate permeability)”: 1≤A2B (B2A)≤5)
same,Caco-2 B2A (10^−6 cm/s),Caco-2 cells,H (H (High permeability)”: A2B (B2A)>5)
same,hHep Cl (mL/min/kg),human hepatocyte,I (I (Intermediate Cl)”: 6.3≤Hep Cl (mL/min/kg)≤14.7)
"COC1(C#Cc2cc3c(cn2)NC(c2c(F)cccc2F)=Nc2c(C)n[nH]c2-3)CCOCC1 [Example 31, 8-(2,6-difluorophenyl)-13-[2-(4-methoxytetrahydropyran-4-y1)ethynyl]-5-methyl-3,4,7,9,12-pentazatricyclo[8.4.0.02,6]tetradeca-1(10),2(6),4,7,11,13-hexaene]",IC50,[1],< 1 nM
same,Caco-2 ER,Caco-2 cells,L (L (Likely)”: ER≥2.5)
same,Caco-2 A2B (10^−6 cm/s),Caco-2 cells,M (M (Moderate permeability)”: 1≤A2B (B2A)≤5)
same,Caco-2 B2A (10^−6 cm/s),Caco-2 cells,H (H (High permeability)”: A2B (B2A)>5)
same,hHep Cl (mL/min/kg),human hepatocyte,I (I (Intermediate Cl)”: 6.3≤Hep Cl (mL/min/kg)≤14.7)
"Cc1n[nH]c2c1N=C(c1c(F)cccc1F)Nc1c-2cc(N2CCN(S(C)(=O)=O)CC2)nc1C [Example 44, 5-(2,6-difluorophenyl)-3,7-dimethyl-9-(4-(methylsulfonyl)piperazin-1-yl)-1,6-dihydropyrazolo[4,3-d]pyrido[4,3-f][1,3]diazepine]",IC50,[1],< 1 nM
same,Caco-2 ER,Caco-2 cells,L (L (Likely)”: ER≥2.5)
same,Caco-2 A2B (10^−6 cm/s),Caco-2 cells,L (L (Low permeability)”: A2B (B2A)<1)
same,Caco-2 B2A (10^−6 cm/s),Caco-2 cells,H (H (High permeability)”: A2B (B2A)>5)
same,hHep Cl (mL/min/kg),human hepatocyte,L (L (Low Cl)”: Hep Cl (mL/min/kg)<6.3)
